Test results published in patent US20100305161A1, “COMBINATIONS OF FUNGICIDAL AZOLES AND PYRION COMPOUNDS” (priority 2007, published 2010).

Assays:
Experiment in all cases: Poison Plate Assay, MIC and synergy of combinations
Type in all cases: cell-based
[1] = test system: Coriolus versicolor CTB863A; settings: Trametes versicolor, 336 h, ppm total active ingredient, growth evaluated after two weeks, 27° C., 70% relative humidity, read-out: MIC-values (minimum inhibitory concentration)
Protocol: (§1) • Test models: Fungi: to each well of a 24-well microtiter plate, 1000 μl of a rich (Potato Dextrose Agar, PDA: 4 g potato infusion, 20 g bacto dextrose and 15 g bacto agar in 1 liter deionised water) or poor (Glucose Agar, GA: 10 g glucose, 1.5 g K2HPO4, 2 g KH2PO4, 1 g (NH4)2SO4, 0.5 g MgSO4 and 12.5 g agar in 1 liter deionised water) medium containing the appropriate combination of the test compounds in one of the concentrations of a dose series is added. The nutrient medium is inoculated with the test fungi by adding a spore/mycelium suspension (10 μl) or a small piece of agar from the margin of an actively growing colony and incubated under dark at 27° C. with 70% relative humidity. The growth of the fungi is evaluated after two weeks. • Bacteria: to each well of a 24-well microtiter plate, 1000 μL Tryptose Agar (TA, 20 g bacto tryptose agar, 5 g sodium chloride, 1 g bacto dextrose and 15 g agar in 1 liter deionised water), containing the test compounds in one of the concentrations of a dose series is added. The nutrient medium is inoculated by adding 10 μl of an actively growing liquid culture of the test bacteria in tryptose broth (without agar), and incubated under dark at 27° C. with 70% relative humidity.
(§2) When the Synergy Index is greater than 1.0, antagonism is indicated. When the SI is equal to 1.0, additivity is indicated.

[2] = test system: Chaetomium globosum ATCC6205; settings: ATCC6205, 336 h, ppm total active ingredient, growth evaluated after two weeks, 27° C., 70% relative humidity, read-out: MIC-values (minimum inhibitory concentration)
Protocol: as §1, §2

[3] = test system: Ulocladium atrum IMI214699a; settings: Alternaria atra, 336 h, ppm total active ingredient, growth evaluated after two weeks, 27° C., 70% relative humidity, read-out: MIC-values (minimum inhibitory concentration)
Protocol: as §1
A. G. Nass (1957) “Some aspects of the notions additivity, synergism and antagonism in the simultaneous activity of two antibacterial agents in vitro” Arch. intern. […]

Compound | MIC [1] [µg/mL] | MIC [2] [µg/mL] | MIC [3] [µg/mL]
CCCC1COC(Cn2cncn2)(c2ccc(Cl)cc2Cl)O1 (stereo not shown) [(I-m) + (II-a) 100 + 0, 1-[[2-(2,4-dichlorophenyl)-4-propyl-1,3-dioxolan-2-yl]methyl]-1H-1,2,4-triazole] | 1.88 | 5.01 | 33.3
[O-][n+]1ccccc1SSc1cccc[n+]1[O-] [(I-n) + (II-g) 0 + 100, pyrion disulfide] |  |  | 1.88
